Laboratory results published in paper PMC12262620 (bioRxiv, 2025).

Assays:
[1] = target: eIF4E binding to m^7GTP RNA substrate (Homo sapiens, UniProt P06730); experiment: cell-based; conditions: 6-hour treatment
LgBiT-eIF4E cells = experiment: CellTiter-Glo cell viability assay; format: cell-based, human; conditions: 6-hour treatment, at the concentrations tested
His10-eIF4E = His10-eIF4E (human, UniProt P06730 1-217); experiment: FP competition
[2] = IC50 in CRISPR RiPCA, read at 24 hours
[3] = IC50 values as 95% confidence intervals, CRISPR RiPCA

Chain of eIF4E binding to m^7GTP RNA substrate (P06730 whole entry): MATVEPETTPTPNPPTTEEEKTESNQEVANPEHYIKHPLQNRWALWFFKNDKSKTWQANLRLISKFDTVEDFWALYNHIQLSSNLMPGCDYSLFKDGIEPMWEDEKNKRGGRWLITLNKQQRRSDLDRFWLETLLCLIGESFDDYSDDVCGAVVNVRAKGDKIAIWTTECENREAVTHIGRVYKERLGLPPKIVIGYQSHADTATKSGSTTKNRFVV
Chain of His10-eIF4E (P06730 whole entry): as above

Molecule	IC50 [1, 2] [nM]	IC50 [1, 3] [nM]	cell viability / cell death (LgBiT-eIF4E cells)	binding result (His10-eIF4E)
CO[C@H]1C[C@@H]2CC[C@@H](C)[C@@](O)(O2)C(=O)C(=O)N2CCCC[C@H]2C(=O)O[C@H]([C@H](C)C[C@@H]2CC[C@@H](O)[C@H](OC)C2)CC(=O)[C@H](C)/C=C(\C)[C@@H](O)[C@@H](OC)C(=O)[C@H](C)C[C@H](C)/C=C/C=C/C=C/1C [rapamycin]	4700	1900 to 11000	Absence of viability defects	
Cc1cc(-c2cc(Cl)ccc2OCCn2c(C)nc3cc(C(F)(F)F)cc(C#N)c3c2=O)c2scc(C(=O)O)c2n1 [compound 2]	124	91 to 171		
O=C(O)C(Cc1ccccc1[N+](=O)[O-])=NNc1nc(-c2ccc(Cl)c(Cl)c2)cs1 (mixture of isomers) [4EGI-1]			Absence of viability defects	
GCUUCAAGAU (ssRNA, no cap; 3' C6 amine) [G RNA (uncapped)]				no binding
